Measurements from publication PMC6832651, “Design, Synthesis and Investigation of the Potential Anti-Inflammatory Activity of 7-O-Amide Hesperetin Derivatives” (Molecules, 2019).

Key:
[1] = tested on: LPS-induced NO production in RAW264.7 cells; test: Inhibition of LPS-induced NO production (Griess reagent); format: cell-based, mouse; conditions: for IC50: Mus musculus, 1 h pretreatment, then LPS 24 h, mean ± SD (n = 3); for LPS-induced NO release: LPS-stimulated, result in words
Experimental: NO is an important inflammatory mediator and is overproduced and secreted out of mouse macrophages in response to bacterial lipopolysaccharide. To evaluate the anti-inflammatory activity of hesperetin derivatives, the secretion level of NO was detected in the medium of RAW264.7 cells after LPS stimulated with Griess reagent. Before the cells were treated with LPS (1 μg/mL) for 24 h, pretreatment with the compounds for 1 hour. […] All hesperetin derivatives could decrease the release of NO induced by LPS. […] While extended the length of the amide side chain and the inhibitory activities increased (4d > 4c > 4a; 4e > 4b). […] On the other hand, the cavity was medium-sized, large enough to accommodate cyclopentyl and propyl groups, but not enough to accommodate cyclohexyl and butyl ones (4a < 4b < 4d > 4f; 4k > 4l).
Nitrite levels were determined using the Griess method for NO has a short half-life and is oxidized to stable nitrite. RAW 264.7 cells were plated at a density of 2 × 10^5 per well in a 24-well culture plate and incubated in a 37 °C humidified incubator (5% CO2). After overnight Cultured, discarded the supernatant, added pre-configured compounds of different concentrations to the 24-well plate, and added the same one-thousandth of the DMSO solvent as the control to the experimental group for 1 h. Then LPS was added to experimental and model groups at a concentration of […] for 24 h compared to vehicle control. Following treatment, media was collected and centrifuged at 2000 rpm for 5 min to remove cellular debris. The medium from treated cells was removed and placed into a 96-well plate (50 µL per well) and was measured in culture supernatant using Griess reagent at 540 nm. The IC50 values of compounds were calculated by SPSS23.

[2] = tested on: LPS-induced NO production in RAW264.7 cells; test: as above; format: cell-based; conditions: Mus musculus, 10 μM compound, 1 h pretreatment, then LPS (1 μg/mL) 24 h, mean ± SD (n = 3)
TNF-α = TNF-α level in medium of LPS-induced RAW264.7 cells (ELISA); format: cell-based, mouse; conditions: 10 μM compound (Figure 2A-C)
Source text: (§1) When inflammation occurs, LPS-activated macrophages produce a variety of inflammatory cytokines, including TNF-α, interleukins (ILs), and nitric oxide (NO), which show a host shielding effect and also accelerate the occurrence of the inflammatory response during inflammatory situations. To evaluate the anti-inflammatory activity of hesperetin derivatives, the levels of TNF-α, IL-6 and IL-1β in the medium of LPS-induced macrophage cells were detected by enzyme linked immunosorbent assay (ELISA). […] Later, we will select one of them as lead compound and modify the structure at the 3’-OH, 5-OH and 4-carbonyl positions. […] Compounds 4d (MW = 401) and 4k (MW = 427) have similar structures and should have the same mechanism. Therefore, compound 4d with lower molecular weight was selected to further explore the mechanism(s) of the anti-inflammatory effect.
(§2) RAW264.7 cells (2 × 10^5 cells/well) were cultured in 24-well plate and pretreated with 10 μM of compounds for 1 h. And then stimulated with LPS, […], for 24 h. The cell culture supernatant were collected and the levels of TNF-α, IL-6 and IL-1β were determined using the ELISA kit (Elabscience, Wuhan, China). The optical density (OD) was measured at 540 nm. The results were analyzed using Origin Pro 8 (OriginLab, Northampton, MA, USA).

IL-6 = IL-6 level in medium of LPS-induced RAW264.7 cells (ELISA); format: cell-based, mouse; conditions: 10 μM compound (Figure 2A-C)
Source text: as §1, §2

IL-1β = IL-1β level in medium of LPS-induced RAW264.7 cells (ELISA); format: cell-based, mouse; conditions: 10 μM compound (Figure 2A-C)
Source text: as §1, §2

Cc1ccc(-c2cc(C(F)(F)F)nn2-c2ccc(S(N)(=O)=O)cc2)cc1 [Cel, celecoxib, reference compound]
IC50 [1]: 26.4 ± 0.46 µM
inhibition at 10 µM [2]: 14.5 ± 3.61%

CCN(CC)C(=O)COc1cc(O)c2c(c1)O[C@H](c1ccc(OC)c(O)c1)CC2=O [Compound 4i, 7-O-(2-(Diethylamino)-2-oxoethyl)hesperetin]
IC50 [1]: 30.5 ± 1.66 µM
melting point: 146.3 to 147.8 °C
inhibition at 10 µM [2]: 17.5 ± 2.33%

COc1ccc([C@@H]2CC(=O)c3c(O)cc(OCC(=O)NC4CCCCC4)cc3O2)cc1O [Compound 4l, 7-O-(2-(Cyclohexylamino)-2-oxoethyl)hesperetin]
IC50 [1]: 33.3 ± 3.3 µM
melting point: 181.9 to 184.1 °C
inhibition at 10 µM [2]: 20.3 ± 2%

CCCCNC(=O)COc1cc(O)c2c(c1)O[C@H](c1ccc(OC)c(O)c1)CC2=O [Compound 4f, 7-O-(2-(Butylamino)-2-oxoethyl)hesperetin]
IC50 [1]: 29.7 ± 3.06 µM
melting point: 136.9 to 138.4 °C
inhibition at 10 µM [2]: 18 ± 0.82%

CCN1CCN(C(=O)COc2cc(O)c3c(c2)O[C@H](c2ccc(OC)c(O)c2)CC3=O)CC1 [Compound 6e, 7-O-(2-(4-Ethylpiperazin-1-yl)-2-oxoethyl)hesperetin]
melting point: 160.7 to 162.9 °C

COc1ccc([C@@H]2CC(=O)c3c(O)cc(OCC(=O)N4CCCC(CO)C4)cc3O2)cc1O (stereo partly shown) [Compound 6b, 7-O-(2-(3-(Hydroxymethyl)piperidin-1-yl)-2-oxoethyl)hesperetin]
IC50 [1]: 31.1 ± 2.93 µM
melting point: 168.6 to 171.8 °C
inhibition at 10 µM [2]: 19.3 ± 1.94%

COc1ccc([C@@H]2CC(=O)c3c(O)cc(OCC(=O)NCC(C)C)cc3O2)cc1O [Compound 4g, 7-O-(2-(Isobutylamino)-2-oxoethyl)hesperetin]
LPS-induced NO release [1]: significantly alleviated the increase of LPS-induced NO release
IC50 [1]: 24.59 ± 0.22 µM
melting point: 136.9 to 139.4 °C
inhibition at 10 µM [2]: 23.5 ± 0.74%

COc1ccc([C@@H]2CC(=O)c3c(O)cc(OCC(=O)NC(C)(C)C)cc3O2)cc1O [Compound 4h, 7-O-(2-(tert-Butylamino)-2-oxoethyl)hesperetin]
IC50 [1]: 42 ± 6.15 µM
melting point: 140.5 to 142.4 °C
inhibition at 10 µM [2]: 17.5 ± 1.33%

CNC(=O)COc1cc(O)c2c(c1)O[C@H](c1ccc(OC)c(O)c1)CC2=O [Compound 4a, 7-O-(2-(Methylamino)-2-oxoethyl)hesperetin]
IC50 [1]: 38.5 ± 2 µM
melting point: 179.8 to 182.7 °C
inhibition at 10 µM [2]: 16 ± 0.06%

COc1ccc2c(c1)c(CC(=O)O)c(C)n2C(=O)c1ccc(Cl)cc1 [Ind, indomethacin, reference compound]
IC50 [1]: 35.3 ± 8.07 µM
inhibition at 10 µM [2]: 12.9 ± 3.09%

COc1ccc([C@@H]2CC(=O)c3c(O)cc(OCC(=O)N4CCSC4)cc3O2)cc1O [Compound 5b, 7-O-(2-(Thiazolidin-3-yl)-2-oxoethyl)hesperetin]
IC50 [1]: 30 ± 0.43 µM
melting point: 152.4 to 154.7 °C
inhibition at 10 µM [2]: 22.7 ± 5.71%

COc1ccc([C@@H]2CC(=O)c3c(O)cc(OCC(=O)N4CCCCC4)cc3O2)cc1O [Compound 6a, 7-O-(2-(piperidin-1-yl)-2-oxoethyl)hesperetin]
LPS-induced NO release [1]: significantly alleviated the increase of LPS-induced NO release
IC50 [1]: 23.4 ± 1.64 µM
melting point: 165.4 to 167.9 °C
inhibition at 10 µM [2]: 30.2 ± 4.67%

COc1ccc([C@@H]2CC(=O)c3c(O)cc(OCC(=O)N4CCOCC4)cc3O2)cc1O [Compound 6f, 7-O-(2-Morpholino-2-oxoethyl)hesperetin]
IC50 [1]: 32.6 ± 1.51 µM
melting point: 188.7 to 189.3 °C
inhibition at 10 µM [2]: 21 ± 0.31%

COc1ccc([C@@H]2CC(=O)c3c(O)cc(OCC(=O)NCCN(C)C)cc3O2)cc1O [Compound 7b, 7-O-(2-((2-(Dimethylamino)ethyl)amino)-2-oxoethyl)hesperetin]
IC50 [1]: 92.5 ± 33.7 µM
melting point: 137.1 to 139.4 °C
inhibition at 10 µM [2]: 12.4 ± 0.67%

COc1ccc([C@@H]2CC(=O)c3c(O)cc(OCC(=O)NCCO)cc3O2)cc1O [Compound 7a, 7-O-(2-((2-Hydroxyethyl)amino)-2-oxoethyl)hesperetin]
IC50 [1]: 28.4 ± 5.33 µM
melting point: 183.8 to 185.7 °C
inhibition at 10 µM [2]: 15 ± 1.99%

COc1ccc([C@@H]2CC(=O)c3c(O)cc(OCC(=O)N(C)C)cc3O2)cc1O [Compound 4c, 7-O-(2-(Dimethylamino)-2-oxoethyl)hesperetin]
IC50 [1]: 32.5 ± 2.46 µM
melting point: 164.1 to 165.8 °C
inhibition at 10 µM [2]: 13.5 ± 1.63%

COc1ccc([C@@H]2CC(=O)c3c(O)cc(OCC(=O)NC4CC4)cc3O2)cc1O [Compound 4j, 7-O-(2-(Cyclopropylamino)-2-oxoethyl)hesperetin]
IC50 [1]: 41.7 ± 2.79 µM
melting point: 190.8 to 193.1 °C
inhibition at 10 µM [2]: 9.57 ± 5.53%

COc1ccc([C@@H]2CC(=O)c3c(O)cc(OCC(=O)NCCN4CCOCC4)cc3O2)cc1O [Compound 7c, 7-O-(2-((2-Mmorpholinoethyl)amino)-2-oxoethyl) hesperetin]
IC50 [1]: 42.4 ± 2.06 µM
melting point: 160.7 to 162.9 °C
inhibition at 10 µM [2]: 18.4 ± 4.55%

COc1ccc([C@@H]2CC(=O)c3c(O)cc(OCC(=O)NC4CCCC4)cc3O2)cc1O [Compound 4k, 7-O-(2-(Cyclopentylamino)-2-oxoethyl)hesperetin]
LPS-induced NO release [1]: significantly alleviated the increase of LPS-induced NO release
IC50 [1]: 16.6 ± 0.85 µM
inhibitory effect on TNF-α production (TNF-α): greater inhibitory effects than indomethacin (Ind) and celecoxib (Cel)
inhibitory effect on IL-6 production (IL-6): greater inhibitory effects than indomethacin (Ind) and celecoxib (Cel)
inhibitory effect on IL-1β production (IL-1β): greater inhibitory effects than indomethacin (Ind) and celecoxib (Cel)
melting point: 187.5 to 190 °C
inhibition at 10 µM [2]: 40.9 ± 0.64%

COc1ccc([C@@H]2CC(=O)c3c(O)cc(OCC(=O)N4CCCCC4CO)cc3O2)cc1O (stereo partly shown) [Compound 6c, 7-O-(2-(2-(Hydroxymethyl)piperidin-1-yl)-2-oxoethyl)hesperetin]
IC50 [1]: 40.6 ± 5.56 µM
melting point: 123.2 to 125.8 °C
inhibition at 10 µM [2]: 9.1 ± 3.67%

COc1ccc([C@@H]2CC(=O)c3c(O)cc(OCC(=O)N4CCCC4)cc3O2)cc1O [Compound 5a, 7-O-(2-(Pyrrolidin-1-yl)-2-oxoethyl)hesperetin]
IC50 [1]: 36.2 ± 5.83 µM
melting point: 127.1 to 130.5 °C
inhibition at 10 µM [2]: 18.9 ± 4.02%

CCNC(=O)COc1cc(O)c2c(c1)O[C@H](c1ccc(OC)c(O)c1)CC2=O [Compound 4b, 7-O-(2-(Ethylamino)-2-oxoethyl)hesperetin]
IC50 [1]: 29.9 ± 3.4 µM
melting point: 171.2 to 173.6 °C
inhibition at 10 µM [2]: 21.5 ± 1.29%

COc1ccc([C@@H]2CC(=O)c3c(O)cc(OCC(=O)NC(C)C)cc3O2)cc1O [Compound 4e, 7-O-(2-(Isopropylamino)-2-oxoethyl)hesperetin]
LPS-induced NO release [1]: significantly alleviated the increase of LPS-induced NO release
IC50 [1]: 26.1 ± 1.21 µM
inhibitory effect on TNF-α production (TNF-α): greater inhibitory effects than indomethacin (Ind) and celecoxib (Cel)
inhibitory effect on IL-6 production (IL-6): greater inhibitory effects than indomethacin (Ind) and celecoxib (Cel)
inhibitory effect on IL-1β production (IL-1β): greater inhibitory effects than indomethacin (Ind) and celecoxib (Cel)
melting point: 157.6 to 160.4 °C
inhibition at 10 µM [2]: 27.1 ± 5.88%

COc1ccc([C@@H]2CC(=O)c3c(O)cc(OCC(=O)N4CCN(C)CC4)cc3O2)cc1O [Compound 6d, 7-O-(2-(4-Methylpiperazin-1-yl)-2-oxoethyl)hesperetin]
melting point: 167.3 to 170.1 °C
